Laboratory results as given in patent US20120058956A1, “PEPTIDES DERIVED FROM FICOLIN AS SURFACTANTS” (METAMOREFIX LTD., priority 2009, published 2012).

Assay: transport of hyaluronic acid through pig skin (Franz cell)
Method: Skin samples (stored at −80° C.) were thawed at 4° C. for approximately 15 hr followed by 1 hr at room temperature prior to use. A thawed pig dermatomed skin sample was mounted horizontally on a Franz cell, dermis side down. […] The receptor phase consisted of PBS pH 7.4 with continuous stirring.
A test formulation, formulated as a suspension was applied to the skin and uniformly dispersed over the skin surface at a surface density of at least 1.0 g/cm^2 to insure pseudo-infinite dose conditions. The formulations consisted of a peptide surfactant of the invention together with hyaluronic acid. The formulations used were as described in the following table: […]
The dose chamber was sealed with an occlusive film to prevent loss of any volatile component of the test formulation. […] Each aliquot was replaced with an equal volume of PBS.
The samples were analyzed for the presence of hyaluronic acid by the Carbazole method as is known in the art.

| Molecule | HA traversed the skin (pH 7.4) | HA traversed the skin (control, surfactant omitted, 5 mg/ml HA, period of 6 hours, Franz cell, receptor PBS pH 7.4, curve 1 in FIG. 1) |
| --- | --- | --- |
| CCCCCCCCCCCC(=O)N(C)CC(=O)[O-].[Na+] [NLS, N Lauroyl Sarcosine Sodium salt] | about 65 ?g/cm^2 |  |
| hyaluronic acid [HA] |  | about 40 ?g/cm^2 |
